# “Also recorded” adds a separate entry of the source.
# Legend:
# SD rats = conditions: 2018, cited from earlier work
# protein complex 1 = test system: protein complex 1; set-up: method as in ImmunoMet, 2018; conditions: study protocol background; ref ImmunoMet, 2018; cited from earlier work
# [1] = SD rats, 50, 100/75, or 150/100 mg/kg QOD oral gavage; ref ImmunoMet, 2018; cited from earlier work
# [2] = major metabolic organs such as lung, liver, kidney; cited from earlier work
# OXPHOS = OXPHOS inhibition in whole blood ex vivo; format: cell-based; conditions: at ~ 6 μM IM156
# Protocol: The maximum plasma exposure achieved in this study was ~ 6 μM in patients who received IM156 at daily doses of 800 mg. […] As such, measurements of target inhibition were not informative using PBMCs-based assays.
# tumor cells = test system: tumor cells; set-up: method as in Immunomet – Data on File; conditions: at equal concentrations, ref Immunomet – Data on File, cited from earlier work
# [3] = presence and absence of activated S9; ref ImmunoMet, 2018; cited from earlier work
# Glioblastoma cells = test system: Glioblastoma cells; set-up: method as in ImmunoMet, 2018; conditions: 15 µM IM156, 500 µM temozolomide, ref ImmunoMet, 2018; cited from earlier work
# [4] = Plasma pharmacokinetics of IM156 in patients
# Protocol: PK samples were also obtained on Cycle 1 Day 15 immediately prior to dosing and 2 h after dosing.
# ③ Method and schedule for administration:
# IM156 will be administered in a fasted state (at least 2 hours after
# and 1 hour before eating and drinking except water) except at
# the single dose stage (described below).
# In the single dose stage, IM156 will be administered with a high-
# fast of at least 10 hours, subjects should eat a high-fat meal in
# 20 minutes starting 30 minutes prior to administration of IM156
# with 240 mL of water. No food will be eaten for at least 4 hours
# after the administration of IM156. Water is allowed as desired
# except for one hour before and after the administration of IM156.
# Phase 1b: advanced solid tumor or lymphoma
# IM156 will be administered at the RP2D and schedule determined during
# Phase 1a. The population(s) and dose and schedule of IM156 will be
# defined in a protocol amendment.
# Methodology This study is a Phase 1 clinical study to determine the MTD and RP2D of
# IM156 as a single agent and to explore its safety, tolerability, PK
# characteristics, exploratory markers, and preliminary efficacy.
# The Phase 1 clinical study consists of two parts, Phase 1a and Phase 1b.
# The Phase 1a is conducted to determine the MTD of IM156 as a single
# agent. In addition, the safety, tolerability, preliminary efficacy, PK
# characteristics, and exploratory markers of IM156 are evaluated in
# patients with advanced solid tumors or lymphoma who have failed in the
# standard therapies. Approximately 8 cohorts are planned in Phase 1a; the
# number of cohorts and the dose and schedule of IM156 to be
# administered at each dose levels will be determined by Safety Committee.
# The Phase 1b is conducted to confirm the safety and tolerability, to
# explore the preliminary efficacy, and to evaluate the exploratory markers
# at the RP2D of IM156 in patients with advanced solid tumor or lymphoma.
# Pharmacokinetic Evaluation
# Pharmacokinetic evaluation on IM156 will be carried out at each dose level in all the patients
# enrolled in the Phase 1a and Phase 1b study. Pharmacokinetic evaluation will be performed on
# Day 1 and 15 (Day 15 is only for the Phase 1a study) of the first cycle (Cycle 1), and Day 1 of the
# second cycle (Cycle 2). Day 1 Cycle 2 will be Day 29. On Day 1 of Cycles 1 and 2, patients may
# be hospitalized in the ward where 24-hour monitoring is possible, and blood and urine will be
# collected before and after IM156 adminstration for PK evaluation. The drug concentration will be
# evaluated whenever analyses of patient samples are feasible during the clinical study. In PK
# evaluation, area under the concentration-time curve (AUC) over the time interval from 0
# extrapolated to infinity (AUCinf), AUC up to the last measurable concentration (AUC0–last),
# maximum plasma drug concentration (Cmax), minimum plasma drug concentration (Cmin), time
# taken to reach the maximum concentration (Tmax), terminal phase half life (T1/2), apparent total
# clearance of the drug from plasma after oral administration (CL/F), accumulation ratio at steady
# state, cumurative amount of unchanged drug excreted into the urine (Ae), renal clearance (CLr),
# and so on will be determined and other PK parameters can be added, if necessary.
# [5] = 150 mg/kg/dose QOD oral, between Days 8 and 10, ref ImmunoMet
# [6] = oral QOD over 27 days (14 doses), ref ImmunoMet
# [7] = plasma, Cycle 1 Day 1, 100 mg oral, N = 3
# [8] = plasma, Cycle 1 Day 1, 200 mg oral, N = 3
# [9] = plasma, Cycle 1 Day 1, 400 mg oral, N = 3
# [10] = plasma, Cycle 1 Day 1, 800 mg oral (both regimens combined), N = 6
# [11] = plasma, Cycle 1 Day 1, 1200 mg oral (both regimens combined), N = 7
# [12] = plasma, Day 27, cohort 1, 100 mg QOD, N = 2
# [13] = plasma, Day 27, cohort 2, 200 mg QOD, N = 3
# [14] = plasma, Day 27, cohort 3, 400 mg QOD, N = 3
# [15] = plasma, Day 27, cohort 4, 800 mg QOD, N = 3
# [16] = plasma, Day 27, cohort 5, 1200 mg QOD, N = 3
# [17] = plasma, Day 27, cohort 6, 800 mg QD, N = 3
# [18] = plasma, Day 27, cohort 7, 1200 mg QD, N = 2
# [19] = plasma, Fed 1 (single dose with high-fat meal), 1200 mg oral, N = 3
structure (smiles),measurement,setting,value
NC(=Nc1ccc(OC(F)(F)F)cc1)N=C(N)N1CCCC1 [IM156],tolerability,"SD rats; 50 mg/kg/dose QOD oral gavage, 27 days, ref ImmunoMet",well tolerated
same,"preterminal euthanasia, females",SD rats; [5],3/15
same,"preterminal euthanasia, males",SD rats; [5],2/15
same,no-observed-adverse-effect level (NOAEL),SD rats; [6],50 mg/kg/dose
same,severely toxic dose in 10% of the rats (STD10),SD rats; [6],100 mg/kg/dose
same,potency as protein complex 1 inhibitor relative to metformin,protein complex 1,~ 100 times
same,dose proportionality of exposure based on AUClast,[1],more than dose-proportional
same,dose proportionality of exposure based on Cmax,[1],less than dose-proportional
same,tissue concentrations compared to plasma,[2],30–80 fold
same,inhibition of OXPHOS in whole blood ex vivo,OXPHOS,very little inhibition
same,reduction of cellular ATP production versus phenformin,tumor cells; without increase in ECAR,more potent
same,decrease of oxygen consumption rate (OCR) of tumor cells compared to phenformin and metformin,tumor cells,more potent
same,genotoxicity in two in vitro assays,[3],not genotoxic
same,neurosphere size,Glioblastoma cells,decreased
same,accumulation of plasma exposure at steady-state,"[4]; 800 mg QD, Day 27 vs Day 1",modest accumulation
same,maximum plasma exposure achieved,[4]; daily doses of 800 mg,~ 6 μM
same,"dose proportionality of plasma exposure (AUC0-24, Cmax)",[4]; doses ≥ 200 mg,increased dose proportionally; also recorded: increased in a dose proportional manner; also recorded: dose proportionality
same,AUC0-24,[4]; [7],482 ± 342 ng·h/mL
same,Cmax,[4]; [7],38.7 ± 31.1 ng/mL
same,Tmax,[4]; [7],6.67 ± 2.31 h
same,AUC0-24,[4]; [8],2980 ± 251 ng·h/mL
same,Cmax,[4]; [8],189 ± 41.0 ng/mL
same,Tmax,[4]; [8],4.67 ± 3.06 h
same,AUC0-24,[4]; [9],4380 ± 3010 ng·h/mL
same,Cmax,[4]; [9],362 ± 131 ng/mL
same,Tmax,[4]; [9],3.33 ± 1.15 h
same,AUC0-24,[4]; [10],7520 ± 3820 ng·h/mL
same,Cmax,[4]; [10],829 ± 260 ng/mL
same,Tmax,[4]; [10],2.25 ± 1.47 h
same,AUC0-24,[4]; [11],"14,100 ± 6970 h*ng/mL"
same,Cmax,[4]; [11],1100 ± 616 ng/mL
same,Tmax,[4]; [11],5.00 ± 3.00 h
same,Plasma AUC0-24,"[4]; plasma, Day 1, cohort 4 only, 800 mg QOD",7250 ± 3960 ng·h/mL
same,Plasma AUC0-24,"[4]; plasma, Day 1, cohort 5 only, 1200 mg QOD",10600 ± 4820 ng·h/mL
same,Plasma AUC0-24,"[4]; plasma, Day 1, cohort 6 only, 800 mg QD",7790 ± 4530 ng·h/mL
same,Plasma AUC0-24,"[4]; plasma, Day 1, cohort 7 only, 1200 mg QD",16800 ± 7720 ng·h/mL
same,"mean Tmax values, range over doses","[4]; plasma, Day 27",1.2 to 4.0 h
same,AUC0-24,[4]; [12],1070 ± 330 ng·h/mL
same,AUC0-48,[4]; [12],1400 ± 383 ng·h/mL
same,AUCINF,[4]; [12],1620 ± 473 ng·h/mL
same,CL/F,[4]; [12],64.5 ± 18.8 L/h
same,Cmax,[4]; [12],109 ± 54.8 ng/mL
same,Tmax,[4]; [12],2.50 ± 2.12 h
same,Vz/F,[4]; [12],1580 ± 291 L
same,t1/2,[4]; [12],17.3 ± 1.91 h
same,AUC0-24,[4]; [13],4200 ± 1140 ng·h/mL
same,AUC0-48,[4]; [13],6010 ± 1810 ng·h/mL
same,AUCINF,[4]; [13],6180 ± 2220 ng·h/mL
same,CL/F,[4]; [13],34.6 ± 12.4 L/h
same,Cmax,[4]; [13],272 ± 43.8 ng/mL
same,Tmax,[4]; [13],4.00 ± 0.00 h
same,Vz/F,[4]; [13],837 ± 266 L
same,t1/2,[4]; [13],16.9 ± 0.752 h
same,AUC0-24,[4]; [14],7630 ± 5410 ng·h/mL
same,AUC0-48,[4]; [14],"10,900 ± 8770 h*ng/mL"
same,CL/F,[4]; [14],67.8 ± 28.3 L/h
same,Cmax,[4]; [14],530 ± 324 ng/mL
same,Tmax,[4]; [14],4.00 ± 0.00 h
same,Vz/F,[4]; [14],1160 ± 256 L
same,t1/2,[4]; [14],12.4 ± 2.56 h
same,AUC0-24,[4]; [15],"12,900 ± 9470 h*ng/mL"
same,AUC0-48,[4]; [15],"18,200 ± 14,700 h*ng/mL"
same,AUCINF,[4]; [15],"11,200 ± 5740 h*ng/mL"
same,CL/F,[4]; [15],82.4 ± 42.3 L/h
same,Cmax,[4]; [15],949 ± 408 ng/mL
same,Tmax,[4]; [15],1.17 ± 0.764 h
same,Vz/F,[4]; [15],1650 ± 413 L
same,t1/2,[4]; [15],14.9 ± 4.20 h
same,AUC0-24,[4]; [16],"21,800 ± 3680 h*ng/mL"
same,AUC0-48,[4]; [16],"29,800 ± 4700 h*ng/mL"
same,AUCINF,[4]; [16],"33,100 ± 6120 h*ng/mL"
same,CL/F,[4]; [16],36.9 ± 6.83 L/h
same,Cmax,[4]; [16],1580 ± 75.3 ng/mL
same,Tmax,[4]; [16],3.33 ± 1.15 h
same,Vz/F,[4]; [16],863 ± 312 L
same,t1/2,[4]; [16],15.9 ± 2.90 h
same,AUC0-24,[4]; [17],"33,600 ± 9780 h*ng/mL"
same,Cmax,[4]; [17],1870 ± 485 ng/mL
same,Tmax,[4]; [17],4.00 ± 0.00 h
same,AUC0-24,[4]; [18],"36,300 ± 7550 h*ng/mL"
same,Cmax,[4]; [18],1980 ± 94.8 ng/mL
same,Tmax,[4]; [18],4.00 ± 0.00 h
same,AUC0-24,[4]; [19],"17,600 ± 12,800 h*ng/mL"
same,Cmax,[4]; [19],1220 ± 910 ng/mL
same,Tmax,[4]; [19],6.83 ± 5.84 h
same,"mean plasma half-life (t1/2) values, range","[4]; plasma, post dose administration",12—17 h
